Measured values reported in patent US20250162989A1, “USP30 INHIBITORS AND USES THEREOF” (Vincere Biosciences, Inc., priority 2021, published 2025).
Where two headings read alike, the source gives them in different places.

Key:
USP30 = USP30 (Homo sapiens (Human), UniProt Q70CQ3); experiment: Dundee MALDI-TOF mass spectrometry assay (K48-linked diubiquitin cleavage); type: biochemical; settings: USP30 25 ng/μl, K48-linked diubiquitin 5.6 μM
Method: USP30 was diluted in a buffer containing 40 mM Tris, 0.01% BSA, 1 mM DTT and K48 in 40 mM Tris, 0.01% BSA.
The compounds were pre-incubated with the USP30 for 5 mins at room temp before the K48 dimer addition. The assay mixture was then incubated for 45 mins at room temp. The assay was stopped by the addition of TFA to a final concentration of 2% (v/v).
Acidified samples of the DUB assays were mixed with 0.5 mM 15N-ubiquitin and then with one part of 2% (v/v) TFA and one part of 2.5 DHAP matrix solution (7.6 mg of 2.5 DHAP in […] ethanol and […] of an aqueous 12 mg ml 1 diammonium hydrogen citrate).

[1] = tested on: Tom20 loss in differentiated RenCell VM; experiment: In-cell Tom20 loss assay; type: cell-based; settings: 20 h after compound addition
Method: To evaluate Tom20 loss following treatment with compounds and/or antimycin/oligomycin, a 96-well plate assay was performed on differentiated RenCell VM. These were seeded into laminin-coated 96-well plates at 5000 cells/well in normal growth medium (ReNcell NSC maintenance medium+20 ng/ml FDF-2 and 20 ng/ml EGF). After 3 days, growth medium was replaced with differentiation medium (ReNCell NSC medium+0.1 mM dibutyryl cAMP and 2 ng/ml GDNF). On days 1 and 4 following addition of differentiation medium, the media was removed and replaced with fresh differentiation medium. […] After again washing with PBS, cells were imaged using GE INCell 6000 at 40× and quantified using HCA-based quantification algorithm of fluorescence density×area normalized to the number of nuclei.

[2] = biological target: recombinant USP30 (amino acids 57-517 of the human sequence) (Homo sapiens (Human), UniProt Q70CQ3); experiment: In vitro USP30 biochemical assay (Ubiquitin-Rhodamine substrate); settings: fluorescence
Method: In vitro biochemical assay to establish the potency of compounds for USP30 inhibition: a 384-well plate assay using a fluorophore tagged substrate of USP30 was used for in vitro screening of compounds. Each compound was tested at
10 different concentrations (0.5 to 10,000 nM) in duplicate wells. […] Data were analyzed using Graph Pad Prism software with a four-parameter (floating slope) fit to log concentration data to determine IC50s.

Kinetic solubility = type: physicochemical; settings: 100 mM PBS, 1 hour at room temperature
Method: To 396 μL of a 100 mM phosphate buffered saline (PBS) was added 4 μL of a 10 mM stock solution of the compound. The mixture was shaken at 1000 rpm for 1 hour at room temperature. […] Compound concentration was calculated by comparison to a standard calibration curve. The assay was done in duplicate. The results are reported in μMol.

[3] = Metabolic stability and intrinsic clearance in liver microsomes (human); type: in vitro ADME; settings: 37° C.
Method: (§1) Test compounds were incubated with microsomes supplemented with co-factors at 37° C. Typical conditions were: compound concentration of 1 μM and 5 sampling time-points (0, 15, 30, 45 and 60 minutes), in duplicates. At each time-point, the reactions were terminated by the addition of organic solvent. The samples were centrifuged and the parent compound concentration was evaluated by LC-MS/MS measurements.

[4] = Metabolic stability and intrinsic clearance in liver microsomes (rat); type: in vitro ADME; settings: 37° C.
Method: as §1

[5] = Metabolic stability and intrinsic clearance in liver microsomes (mouse); type: in vitro ADME; settings: 37° C.
Method: as §1

[6] = […] recombinant USP30, 25 nM Ubiquitin-Rhodamine
[7] = 1.5 nM recombinant USP30, 25 nM Ubiquitin-Rhodamine

USP30, sequence (Q70CQ3 whole entry): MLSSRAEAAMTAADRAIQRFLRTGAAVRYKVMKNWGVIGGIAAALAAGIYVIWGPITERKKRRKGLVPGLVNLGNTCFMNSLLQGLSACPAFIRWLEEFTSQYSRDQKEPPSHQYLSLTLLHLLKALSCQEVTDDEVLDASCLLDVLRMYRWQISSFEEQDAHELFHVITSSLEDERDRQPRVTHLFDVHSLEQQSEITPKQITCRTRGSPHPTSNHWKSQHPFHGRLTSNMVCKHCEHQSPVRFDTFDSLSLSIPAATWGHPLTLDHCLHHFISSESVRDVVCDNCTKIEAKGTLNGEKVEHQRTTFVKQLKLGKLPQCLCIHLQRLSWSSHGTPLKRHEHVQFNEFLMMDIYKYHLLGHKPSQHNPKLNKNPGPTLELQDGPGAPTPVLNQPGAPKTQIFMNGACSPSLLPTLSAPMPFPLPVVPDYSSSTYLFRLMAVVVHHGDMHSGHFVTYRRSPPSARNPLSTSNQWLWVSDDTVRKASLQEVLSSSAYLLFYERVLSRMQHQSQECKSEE
recombinant USP30 (amino acids 57-517 of the human sequence), sequence (Q70CQ3 57-517): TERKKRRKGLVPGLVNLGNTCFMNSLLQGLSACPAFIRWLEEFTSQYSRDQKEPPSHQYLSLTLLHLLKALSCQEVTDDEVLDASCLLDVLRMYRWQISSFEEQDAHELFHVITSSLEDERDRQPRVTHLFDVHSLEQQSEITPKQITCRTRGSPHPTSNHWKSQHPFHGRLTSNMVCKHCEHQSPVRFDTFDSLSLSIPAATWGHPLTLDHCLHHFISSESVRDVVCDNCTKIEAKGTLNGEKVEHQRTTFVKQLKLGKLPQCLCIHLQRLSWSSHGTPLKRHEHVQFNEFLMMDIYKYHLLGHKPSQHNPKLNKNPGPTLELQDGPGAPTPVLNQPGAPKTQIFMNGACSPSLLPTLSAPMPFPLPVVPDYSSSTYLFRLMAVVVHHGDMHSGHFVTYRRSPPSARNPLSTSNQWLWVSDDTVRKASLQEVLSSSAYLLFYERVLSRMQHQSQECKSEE

IC50 [2, 6] [µM] | Kinetic Solubility (μMol) (Kinetic solubility) | IC50 [2, 7] [µM] | IC50 (USP30; read-out: USP30 IC50 μM (avg)) [µM] | SMILES | also measured
< 0.05 |  |  |  | CC(C)C[C@H](NC(=O)c1ccc(F)cc1)C(=O)Nc1ccc(S(=O)(=O)NC(C)(C)C)cc1 [Compound I-11] | IC50 [1]: < 500 nM
< 0.05 | D (solubility of <1.0 μMol) |  |  | CC(C)CC[C@H](NC(=O)c1ccc(F)cc1)C(=O)Nc1ccc(S(=O)(=O)NC(C)(C)C)cc1 [Compound I-23] | 
 | A (solubility of ≥75.0 μMol) | 0.05 to 1 |  | CCN1CCC(C[C@H](NC(=O)c2ccc(F)cc2)C(=O)Nc2ccc(S(=O)(=O)NC(C)(C)C)cc2)CC1 [Compound I-42] | 
 | D (solubility of <1.0 μMol) | 0.05 to 1 |  | CC(C)(C)NS(=O)(=O)c1ccc(NC(=O)[C@H](Cc2ccc(-c3ccccc3)cc2)NC(=O)c2ccc(F)cc2)cc1 [Compound I-60] | 
 | D (solubility of <1.0 μMol) | 0.05 to 1 |  | CC(C)(C)NS(=O)(=O)c1ccc(NC(=O)[C@@H](NC(=O)c2ccc(F)cc2)C(C)(C)c2ccccc2)cc1 [Compound I-61] | 
 |  | 0.05 to 1 | < 0.05 | CC(=O)CN1CCC(C[C@H](NC(=O)c2ccc(F)cc2)C(=O)Nc2ccc(S(=O)(=O)NC(C)(C)C)cc2)CC1 [Compound I-172] | 
 |  | 0.05 to 1 | 0.05 to 1 | CC(C)(C)NS(=O)(=O)c1ccc(NC(=O)[C@H](Cc2ccccc2)NC(=O)C2CCOCC2)cc1 [Compound I-174] | 
< 0.05 |  |  | < 0.05 | CC(C)(C)NS(=O)(=O)c1ccc(NC(=O)[C@H](CC2CCOCC2)NC(=O)c2ccc(F)cn2)cc1 [Compound I-177] | 
< 0.05 |  |  | < 0.05 | CC(C)(C)NS(=O)(=O)c1cccc2c(NC(=O)[C@H](Cc3ccccc3)NC(=O)c3ccc(F)nc3)cccc12 [Compound I-182] | 
< 0.05 |  |  | < 0.05 | CN1CCC(C[C@H](NC(=O)c2ccc(F)cn2)C(=O)Nc2ccc(S(=O)(=O)NC(C)(C)C)cc2)CC1 [Compound I-185, (S)—N-(1-((4-(N-(tert-butyl)sulfamoyl)phenyl)amino)-3-(1-methylpiperidin-4-yl)-1-oxopropan-2-yl)-5-fluoropicolinamide] | 
 |  | 0.05 to 1 | 0.05 to 1 | Cn1nccc1CNS(=O)(=O)c1ccc(NC(=O)[C@H](Cc2ccccc2)NC(=O)c2ccc(F)cc2)cc1 [Compound I-205] | 
 |  | 0.05 to 1 | 0.05 to 1 | Cn1cncc1CNS(=O)(=O)c1ccc(NC(=O)[C@H](Cc2ccccc2)NC(=O)c2ccc(F)cc2)cc1 [Compound I-227] | 
 |  | 0.05 to 1 | 0.05 to 1 | CC(=O)O[C@@H]1C[C@@H](C(=O)Nc2ccc(S(=O)(=O)NC(C)(C)C)cc2)N(C(=O)c2ccc(F)cc2)C1 [Compound I-266] | 
< 0.05 |  |  | < 0.05 | Cn1ccc(N2CCC(C[C@H](NC(=O)c3ccc(F)cc3)C(=O)Nc3ccc(S(=O)(=O)NC(C)(C)C)nc3)CC2)n1 [Compound I-293] | 

The remaining lines, values behind:

SMILES | IC50 [2, 6] [µM] | Kinetic Solubility (μMol) (Kinetic solubility) | IC50 [2, 7] [µM] | IC50 (USP30; read-out: USP30 IC50 μM (avg)) [µM] | also measured
CC(C)(C)NS(=O)(=O)c1ccc(NC(=O)[C@H](CC2CCOCC2)NC(=O)c2ccc(F)cc2)cc1 [Compound I-1] | < 0.05 |  |  |  | IC50 (USP30; read-out: IC50): < 0.05 µM; IC50 [1]: < 500 nM
COc1cc(NC(=O)[C@H](CC2CCOCC2)NC(=O)c2ccc(F)cc2)ccc1S(=O)(=O)NC1COC1 [Compound I-3] |  | A (solubility of ≥75.0 μMol) | 0.05 to 1 |  | half-life at 1 μM [3]: 2 to 6 h; half-life at 1 μM [4]: ≥ 6 h; half-life at 1 μM [5]: 0.25 to 2 h
CC(C)C[C@H](NC(=O)c1ccc(F)cc1)C(=O)Nc1ccc(S(=O)(=O)NC(C)(C)CCO)cc1 [Compound I-20, (S)-4-fluoro-N-(1-((4-(N-(4-hydroxy-2-methylbutan-2-yl)sulfamoyl)phenyl)amino)-4-methyl-1-oxopentan-2-yl)benzamide] |  | B (solubility of ≥50.0 μMol and <75.0 μMol) | 0.05 to 1 |  | 
CN1CCC(C[C@H](NC(=O)c2ccc(F)cc2)C(=O)Nc2ccc(S(=O)(=O)NC(C)(C)C)cc2)CC1 [Compound I-41] |  | A (solubility of ≥75.0 μMol) | 0.05 to 1 |  | 
CC(C)(CCO)NS(=O)(=O)c1ccc(NC(=O)[C@H](Cc2ccc(-c3ccccc3)cc2)NC(=O)c2ccc(F)cc2)cc1 [Compound I-59] |  | D (solubility of <1.0 μMol) | 0.05 to 1 |  | 
CC(C)(CO)NS(=O)(=O)c1ccc(NC(=O)[C@@H](NC(=O)c2ccc(F)cc2)C(C)(C)c2ccccc2)cc1 [Compound I-62] |  | C (solubility ≥1.0 μMol and <50.0 μMol) | 1 to 10 |  | 
O=C(N[C@@H](Cc1ccccc1)C(=O)Nc1ccc(S(=O)(=O)NC2COC2)c(O)c1)c1ccc(F)cc1 [Compound I-66] |  | B (solubility of ≥50.0 μMol and <75.0 μMol) | 0.05 to 1 |  | IC50 (USP30; read-out: IC50): < 0.05 µM
CN1CCC(C[C@H](NC(=O)c2ccc(F)cc2)C(=O)Nc2ccc(S(=O)(=O)NC(C)(C)C)nc2)CC1 [Compound I-78] |  | A (solubility of ≥75.0 μMol) | 0.05 to 1 | < 0.05 | 
COCCN1CCC(C[C@H](NC(=O)c2ccc(F)cc2)C(=O)Nc2ccc(S(=O)(=O)NC(C)(C)C)cc2)CC1 [Compound I-173] | < 0.05 |  |  | < 0.05 | 
CC(C)(C)NS(=O)(=O)c1ccc(NC(=O)[C@H](CC2CCNCC2)NC(=O)c2ccc(F)cn2)cc1 [Compound I-175, (S)—N-(1-((4-(N-(tert-butyl)sulfamoyl)phenyl)amino)-1-oxo-3-(piperidin-4-yl)propan-2-yl)-5-fluoropicolinamide] | < 0.05 | A (solubility of ≥75.0 μMol) |  | < 0.05 | 
CC(C)(C)NS(=O)(=O)c1ccc(NC(=O)[C@H](CC2CCNCC2)NC(=O)c2ccc(F)nc2)cc1 [Compound I-186] |  |  | 0.05 to 1 | 0.05 to 1 | 
CC(C)(C)NS(=O)(=O)c1ccc(NC(=O)[C@H](CC2CCOCC2)NC(=O)c2ccc(F)nc2)cc1 [Compound I-196] | < 0.05 |  |  | < 0.05 | 
CC(C)(NS(=O)(=O)c1ccc(NC(=O)[C@H](CC2CCNCC2)NC(=O)c2ccc(F)cn2)cc1)C(F)(F)F [Compound I-199] |  |  | 0.05 to 1 | 0.05 to 1 | 
O=C(N[C@@H](Cc1ccccc1)C(=O)Nc1ccc(S(=O)(=O)NC2(CF)CC2)cc1)c1ccc(F)cc1 [Compound I-200] |  |  | 0.05 to 1 | < 0.05 | 
CC(C)(NS(=O)(=O)c1ccc(NC(=O)[C@H](Cc2ccccc2)NC(=O)c2ccc(F)cn2)cc1)C(F)(F)F [Compound I-201] |  |  | 0.05 to 1 | < 0.05 | 
CN1CCC(C[C@H](NC(=O)c2ccc(F)cn2)C(=O)Nc2ccc(S(=O)(=O)NC(C)(C)C(F)(F)F)cc2)CC1 [Compound I-202] | < 0.05 |  |  | < 0.05 | 
CC(C)(C)NS(=O)(=O)c1ccc(NC(=O)[C@H](CC2CCN(CCC(F)(F)F)CC2)NC(=O)c2ccc(F)cc2)cn1 [Compound I-208] |  |  | 0.05 to 1 | 0.05 to 1 | 
COc1cc(NC(=O)[C@H](CC2CCNCC2)NC(=O)c2ccc(F)cc2)ccc1S(=O)(=O)NC(C)(C)CF [Compound I-209] |  |  | 0.05 to 1 | 0.05 to 1 | 
COc1cc(NC(=O)[C@@H]2C[C@@H](c3ccccc3)CN2C(=O)c2ccc(F)cc2)ccc1S(=O)(=O)NC(C)(C)CO [Compound I-272] |  |  | 0.05 to 1 | 0.05 to 1 | 
